Reference: patent publication US20210230179A1, “THIENO[2,3-B]PYRIDINE DERIVATIVES AS EPAC INHIBITORS AND THEIR PHARMACEUTICAL USES” (INSTITUT NATIONAL DE LA SANTE ET DE LA RECHERCHE MEDICALE …, priority 2018, published 2021)

What was measured:
Epac1 = molecular target: T1, Epac1 (Homo sapiens, UniProt O95398); experiment: Rap1-GTP in HEK293 cells transfected with Epac1; format: cell-based; design: expressed in transfected cells; host or cells: HEK293; details: 20 μM, 30 min preincubation; 8-CPT-AM 10 μM, 10 min
T1 sequence (O95398 1-923): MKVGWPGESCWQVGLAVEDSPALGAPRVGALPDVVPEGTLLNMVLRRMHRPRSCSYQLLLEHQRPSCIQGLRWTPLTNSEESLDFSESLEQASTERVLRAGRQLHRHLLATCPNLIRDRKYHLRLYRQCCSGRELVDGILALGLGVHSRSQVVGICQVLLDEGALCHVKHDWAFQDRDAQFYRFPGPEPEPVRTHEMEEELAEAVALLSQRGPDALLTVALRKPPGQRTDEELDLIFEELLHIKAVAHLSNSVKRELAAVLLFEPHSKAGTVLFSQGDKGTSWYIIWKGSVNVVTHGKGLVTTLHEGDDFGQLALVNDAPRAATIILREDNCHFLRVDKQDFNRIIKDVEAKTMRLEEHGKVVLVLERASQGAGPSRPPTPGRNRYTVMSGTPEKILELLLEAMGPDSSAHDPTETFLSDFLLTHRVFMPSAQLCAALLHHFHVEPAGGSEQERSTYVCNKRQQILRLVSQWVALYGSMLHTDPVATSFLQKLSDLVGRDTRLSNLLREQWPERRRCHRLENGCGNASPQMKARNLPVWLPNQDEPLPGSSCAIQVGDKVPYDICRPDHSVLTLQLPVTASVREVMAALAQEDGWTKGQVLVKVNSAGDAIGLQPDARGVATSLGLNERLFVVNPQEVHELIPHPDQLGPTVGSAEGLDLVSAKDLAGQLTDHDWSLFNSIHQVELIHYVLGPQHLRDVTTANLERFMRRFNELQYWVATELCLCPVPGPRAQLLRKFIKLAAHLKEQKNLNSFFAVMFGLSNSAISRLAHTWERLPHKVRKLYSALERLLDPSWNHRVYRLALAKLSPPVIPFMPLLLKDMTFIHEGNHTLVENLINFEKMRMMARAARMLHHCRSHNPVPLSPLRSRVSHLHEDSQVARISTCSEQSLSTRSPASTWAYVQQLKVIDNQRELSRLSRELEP
Procedure: FIGS. 9-13. Amounts of Rap1-GTP (n=5 in each group, mean±S.E.M) were determined in HEK293 cells transfected with Epac1 (FIGS. 9-11), Epac2A (FIG. 12) or Epac2B (FIG. 13). Cells were preincubated or not with AM-001 (FIGS. 9, 12, and 13), AM-002 (FIG. 10) or AM-003 (FIG. 11) (20 μM, 30 min) and were then treated or not with 8-CPT-AM (10 μM for Epac1 activation and 20 μM for Epac2A activation) or S-220 (50 μM for Epac2B activation) for 10 min. ESI-05 was used as positive control of Epac2A inhibition. Representative immunoblots are shown. […], *[…], ***p<0.001, ****p<0.0001, versus indicated values, one way ANOVA, Bonferroni comparison test.
Human Embryonic Kidney cells line (HEK293): HEK293 cells were maintained is in minimal essential medium with FBS (10%) and penicillin-streptomycin (1%). All media, sera, and antibiotics used in cell culture were purchased from Invitrogen.
The human Epac1/Epac2 expression vector was a gift from Dr J. L. Bos. Cells were transfected using Lipofectamine 2000 (Invitrogen) according to the manufacturer's instructions. HEK293 cells were maintained in MEM with FBS (Foetal Bovine Serum; 10%) and penicillin-streptomycin (1%). All media, sera and antibiotics used in cell culture were purchased from Invitrogen (Cergy Pontoise, France). Transient transfection experiments were performed with Lipofectamine 2000 (Invitrogen Life Technologies) in the presence of various amounts of plasmid constructs according to the manufacturer's instructions.
This cell line is commonly used for the evaluation of Epac pharmacological modulators on the cellular signaling of ectopically expressed Epac1 and Epac2 isoforms. […] Next, the inventors investigated the effect of 8-CPT-AM on the two Epac2 splice variants, Epac2A and Epac2B (FIGS. 12-13).

wild-type C57BL/6 mice = experiment: chronic ISO infusion (chronic β-AR activation): cardiac function, remodelling, tolerability
Text: FIG. 17: AST and ALT activities in the serum of mice treated under the indicated conditions (left panel) (n=7 per group). Comparison of FS in animals between day 1 and day 14 in the presence or absence of AM-001 (right panel) (n=12 per group).
FIG. 18: LVW/TL ratios of mice after 14 days of treatment with vehicle or AM-001.
FIG. 20: Comparison of FS, LVIDs and LVIDd in ISO treated animals between day 1 and day 14 in the presence or absence of AM-001 (n=18-20 per group).
FIG. 21: Representative immunoblots of Epac1, GRK2, and GRK5. Statistical significance was determined by two-way ANOVA followed by Bonferroni post-test. * p<0.05, ** p<0.01, *** p<0.001, **** p<0.0001 vs indicated values. ns, not significant.
Osmotic mini-pumps (Alzet) were implanted subcutaneously in mice anaesthetized with isoflurane (1%). Pumps were filled with ISO or sterile saline and were set to deliver ISO at 60 mg/kg per day for 14 days to induce cardiac hypertrophy. AM-001 treatment (10 mg/kg/d diluted in 10% DMSO/20% Kolliphor/70% sterile saline) is given from the third day of ISO infusion. Mice were subsequently euthanized with barbiturate overdose (pentobarbital, 150 mg/kg, i.p.) and mini-pumps were weighed in order to verify complete diffusion.
Echocardiography was carried out on lightly anaesthetized (1% isoflurane in air) mice placed on a heating pad. The left ventricle dimensions were obtained during TimeMouvement mode acquisition from the parasternal short-axis view at the midventricular level of the papillary muscles using a Vevo2100 ivid7 echograph and a […] transducer (M550i13L, VisualsonicsGE Healthcare). Images were transferred and analysed off line with Vevolab software EchoPAC (GE Healthcare).
Determination of fibrosis Hearts were transversely sectioned at 10 μm thickness, fixed with 4% paraformaladehyde and stained with Sirius Red. Slides were scanned with NanoZoomer (Hamamatsu v1.2) and fibrosis was measured as positively stained area with Sirius Red and expressed as percent of total area, using ImageJ software (RSB).
Hearts were collected, fixed in 4% paraformaldehyde, dehydrated, and embedded in OCT tissue embedding compound (Tissue Tek, EMS). Longitudinal sections were performed at 10 μm in thickness and stained with hematoxylin and eosin for histological examination.
Aspartate aminotransferase (AST) and alanine aminotransferase (ALT) were measured in serum to determine the cytotoxicity, using specific kits purchased from ScienCell Research Laboratories following the manufacturer's instructions.
The inventors next sought to determine whether AM-001 could provide improvement in cardiac function and remodelling during chronic p-AR activation.

[1] = ISO 60 mg/kg per day 14 days, AM-001 10 mg/kg from day 3

Nc1c(C(=O)Nc2ccc(F)cc2)sc2nc(-c3cccs3)cc(-c3ccccc3)c12 [AM-001, 3-amino-N-(4-fluorophenyl)-4-phenyl-6-(thiophen-2-yl)thieno[2,3-b]pyridine-2-carboxamide]
inhibition of Epac1-induced Rap1 activation (Epac1): prevented Epac1-induced Rap1 activation
liver and renal histology (H & E staining) (wild-type C57BL/6 mice; 10 mg/kg i.p. day 3 to day 14): did not display any apparent histological alterations
plasma level of alanine aminotransferase (ALT) (wild-type C57BL/6 mice; 10 mg/kg i.p. day 3 to day 14): equivalent in each group
plasma level of aspartate aminotransferase (AST) (wild-type C57BL/6 mice; 10 mg/kg i.p. day 3 to day 14): equivalent in each group
LVW/TL ratio under ISO (wild-type C57BL/6 mice; [1]): further decreased
fibrosis (Sirius Red positive area, percent of total area) (wild-type C57BL/6 mice; [1]): 1.1±0.5%
left ventricular end-diastolic internal diameter (LVIDd) (wild-type C57BL/6 mice; during ISO treatment): decrease
left ventricular end-systolic internal diameter (LVIDs) (wild-type C57BL/6 mice; during ISO treatment): decrease
ISO-induced upregulation of GRK5 expression (wild-type C57BL/6 mice; immunoblot, ISO treated animals): significantly reduced
fractional shortening (FS) after 14 days of ISO (wild-type C57BL/6 mice; vs vehicle treated mice): higher FS
